Test results as given in ChEMBL document CHEMBL4411307, “N,N'-diaryl-bishydrazones in a biphenyl platform: Broad spectrum antifungal agents” (Eur J Med Chem, 2019).
In brackets after ≈: the same amount, converted by molar mass. Activity calls are given as the source filed them. The calls are words filed in the database; no cut-off is given here.

Assays:
[1] = system: Listeria monocytogenes; assay: Antibacterial activity against Listeria monocytogenes; assay type: functional, organism-based
[2] = system: Staphylococcus aureus; assay: Antibacterial activity against methicillin-resistant Staphylococcus aureus; assay type: functional, organism-based
[3] = system: Enterococcus; assay: Antibacterial activity against vancomycin-resistant Enterococcus; assay type: functional, organism-based
[4] = system: Candida albicans; assay: Antifungal activity against fluconazole/ITC-resistant Candida albicans ATCC 10231 measured after 48 hrs by CLSI M27-A3 protocol based method; assay type: functional; conditions: ATCC 10231, 48 h
[5] = system: Candida albicans; assay: Antifungal activity against fluconazole/ITC-resistant Candida albicans ATCC 64124 measured after 48 hrs by CLSI M27-A3 protocol based method; assay type: functional; conditions: ATCC 64124, 48 h
[6] = system: Candida albicans; assay: Antifungal activity against fluconazole/ITC-susceptible Candida albicans ATCC MYA-2876 measured after 48 hrs by CLSI M27-A3 protocol based method; assay type: functional; conditions: ATCC MYA-2876, 48 h
[7] = system: Candida albicans; assay: Antifungal activity against fluconazole/ITC-resistant Candida albicans ATCC 90819 measured after 48 hrs by CLSI M27-A3 protocol based method; assay type: functional; conditions: ATCC 90819, 48 h
[8] = system: Candida albicans; assay: Antifungal activity against fluconazole/ITC-susceptible Candida albicans ATCC MYA-2310 measured after 48 hrs by CLSI M27-A3 protocol based method; assay type: functional; conditions: ATCC MYA-2310, 48 h
[9] = system: Candida albicans; assay: Antifungal activity against fluconazole/ITC-resistant Candida albicans ATCC MYA-1237 measured after 48 hrs by CLSI M27-A3 protocol based method; assay type: functional; conditions: ATCC MYA-1237, 48 h
[10] = system: Candida albicans; assay: Antifungal activity against fluconazole/ITC-resistant Candida albicans ATCC MYA-1003 measured after 48 hrs by CLSI M27-A3 protocol based method; assay type: functional; conditions: ATCC MYA-1003, 48 h
[11] = system: Nakaseomyces glabratus; assay: Antifungal activity against Candida glabrata ATCC 2001 measured after 48 hrs by CLSI M27-A3 protocol based method; assay type: functional; conditions: CBS 138, 48 h
[12] = system: Pichia kudriavzevii; assay: Antifungal activity against Candida krusei ATCC 6258 measured after 48 hrs by CLSI M27-A3 protocol based method; assay type: functional; conditions: ATCC 6258, 48 h
[13] = system: Candida parapsilosis; assay: Antifungal activity against Candida parapsilosis ATCC 22019 measured after 48 hrs by CLSI M27-A3 protocol based method; assay type: functional; conditions: Lodderomyces parapsilosis, ATCC 22019, 48 h
[14] = system: Aspergillus flavus; assay: Antifungal activity against Aspergillus flavus ATCC MYA-3631 measured after 48 hrs by CLSI M38-A2 protocol based method; assay type: functional; conditions: ATCC MYA-3631, 48 h
[15] = system: Aspergillus nidulans; assay: Antifungal activity against Aspergillus nidulans ATCC 38163 measured after 48 hrs by CLSI M38-A2 protocol based method; assay type: functional; conditions: ATCC 38163, 48 h
[16] = system: Aspergillus terreus; assay: Antifungal activity against Aspergillus terreus ATCC MYA-3633 measured after 48 hrs by CLSI M38-A2 protocol based method; assay type: functional; conditions: ATCC MYA-3633, 48 h

## CC(C)Oc1ccc(N/N=C/c2ccc(-c3ccc(/C=N/Nc4ccc(OC(C)C)cc4)cc3)cc2)cc1
[1]
  Activity: inactive
[2]
  Activity: inactive
[3]
  Activity: inactive
[4]
  MIC: > 31.3 µg/mL
[5]
  MIC: > 31.3 µg/mL
[6]
  MIC: > 31.3 µg/mL
[7]
  MIC: > 31.3 µg/mL
[8]
  MIC: > 31.3 µg/mL
[9]
  MIC: > 31.3 µg/mL
[10]
  MIC: > 31.3 µg/mL
[11]
  MIC: > 31.3 µg/mL
[12]
  MIC: > 31.3 µg/mL
[13]
  MIC: > 31.3 µg/mL
[14]
  MIC: > 31.3 µg/mL
[15]
  MIC: > 31.3 µg/mL
[16]
  MIC: > 31.3 µg/mL

## C/C(=N\NC(=N)N)c1ccc(-c2ccc(/C(C)=N/NC(=N)N)cc2)cc1
[4]
  MIC: 3.9 µg/mL (≈ 11.1 µM)
[5]
  MIC: 3.9 µg/mL (≈ 11.1 µM)
[6]
  MIC: 15.6 µg/mL (≈ 44.5 µM)
[7]
  MIC: 3.9 µg/mL (≈ 11.1 µM)
[8]
  MIC: 15.6 µg/mL (≈ 44.5 µM)
[9]
  MIC: 15.6 µg/mL (≈ 44.5 µM)
[10]
  MIC: 15.6 µg/mL (≈ 44.5 µM)
[11]
  MIC: 7.8 µg/mL (≈ 22.3 µM)
[12]
  MIC: 3.9 µg/mL (≈ 11.1 µM)
[13]
  MIC: 1.95 µg/mL (≈ 5.56 µM)
[14]
  MIC: > 31.3 µg/mL
[15]
  MIC: 15.6 µg/mL (≈ 44.5 µM)
[16]
  MIC: > 31.3 µg/mL

## COc1ccccc1N/N=C(\C)c1ccc(-c2ccc(/C(C)=N/Nc3ccccc3OC)cc2)cc1
[1]
  Activity: inactive
[2]
  Activity: inactive
[3]
  Activity: inactive
[4]
  MIC: 15.6 µg/mL (≈ 32.6 µM)
[5]
  MIC: > 31.3 µg/mL
[6]
  MIC: > 31.3 µg/mL
[7]
  MIC: > 31.3 µg/mL
[8]
  MIC: > 31.3 µg/mL
[9]
  MIC: > 31.3 µg/mL
[10]
  MIC: 31.3 µg/mL (≈ 65.4 µM)
[11]
  MIC: > 31.3 µg/mL
[12]
  MIC: 31.3 µg/mL (≈ 65.4 µM)
[13]
  MIC: 31.3 µg/mL (≈ 65.4 µM)
[14]
  MIC: > 31.3 µg/mL
[15]
  MIC: > 31.3 µg/mL
[16]
  MIC: > 31.3 µg/mL

## COc1cccc(N/N=C(\C)c2ccc(-c3ccc(/C(C)=N/Nc4cccc(OC)c4)cc3)cc2)c1
[1]
  Activity: inactive
[2]
  Activity: inactive
[3]
  Activity: inactive
[4]
  MIC: 0.98 µg/mL (≈ 2.05 µM)
[5]
  MIC: 0.98 µg/mL (≈ 2.05 µM)
[6]
  MIC: 15.6 µg/mL (≈ 32.6 µM)
[7]
  MIC: 31.3 µg/mL (≈ 65.4 µM)
[8]
  MIC: 15.6 µg/mL (≈ 32.6 µM)
[9]
  MIC: 31.3 µg/mL (≈ 65.4 µM)
[10]
  MIC: 3.9 µg/mL (≈ 8.15 µM)
[11]
  MIC: 15.6 µg/mL (≈ 32.6 µM)
[12]
  MIC: 0.98 µg/mL (≈ 2.05 µM)
[13]
  MIC: 15.6 µg/mL (≈ 32.6 µM)
[14]
  MIC: > 31.3 µg/mL
[15]
  MIC: > 31.3 µg/mL
[16]
  MIC: > 31.3 µg/mL

## Brc1ccc(N/N=C/c2ccc(-c3cccc(/C=N/Nc4ccc(Br)cc4)c3)cc2)cc1
[1]
  Activity: inactive
[2]
  Activity: inactive
[3]
  Activity: inactive
[4]
  MIC: 31.3 µg/mL (≈ 57.1 µM)
[5]
  MIC: 31.3 µg/mL (≈ 57.1 µM)
[6]
  MIC: 31.3 µg/mL (≈ 57.1 µM)
[7]
  MIC: > 31.3 µg/mL
[8]
  MIC: > 31.3 µg/mL
[9]
  MIC: 7.8 µg/mL (≈ 14.2 µM)
[10]
  MIC: 31.3 µg/mL (≈ 57.1 µM)
[11]
  MIC: 7.8 µg/mL (≈ 14.2 µM)
[12]
  MIC: > 31.3 µg/mL
[13]
  MIC: > 31.3 µg/mL
[14]
  MIC: 31.3 µg/mL (≈ 57.1 µM)
[15]
  MIC: > 31.3 µg/mL
[16]
  MIC: > 31.3 µg/mL

## Fc1cccc(N/N=C/c2ccc(-c3ccc(/C=N/Nc4cccc(F)c4F)cc3)cc2)c1F
[1]
  Activity: inactive
[2]
  Activity: inactive
[3]
  Activity: inactive
[4]
  MIC: 31.3 µg/mL (≈ 67.7 µM)
[5]
  MIC: > 31.3 µg/mL
[6]
  MIC: > 31.3 µg/mL
[7]
  MIC: > 31.3 µg/mL
[8]
  MIC: > 31.3 µg/mL
[9]
  MIC: > 31.3 µg/mL
[10]
  MIC: > 31.3 µg/mL
[11]
  MIC: > 31.3 µg/mL
[12]
  MIC: > 31.3 µg/mL
[13]
  MIC: > 31.3 µg/mL
[14]
  MIC: > 31.3 µg/mL
[15]
  MIC: > 31.3 µg/mL
[16]
  MIC: > 31.3 µg/mL

## CC[C@H](C)C[C@H](C)CCCCCCCCC(=O)N[C@H]1C[C@@H](O)[C@@H](NCCN)NC(=O)[C@@H]2[C@@H](O)CCN2C(=O)[C@H]([C@H](O)CCN)NC(=O)[C@H]([C@H](O)[C@@H](O)c2ccc(O)cc2)NC(=O)[C@@H]2C[C@@H](O)CN2C(=O)[C@H]([C@@H](C)O)NC1=O [CASPOFUNGIN]
[4]
  MIC: 0.975 µg/mL (≈ 0.892 µM)
[5]
  MIC: 0.24 µg/mL (≈ 0.22 µM)
[6]
  MIC: 0.06 µg/mL (≈ 0.0549 µM)
[7]
  MIC: 0.12 µg/mL (≈ 0.11 µM)
[8]
  MIC: 0.12 µg/mL (≈ 0.11 µM)
[9]
  MIC: 0.24 µg/mL (≈ 0.22 µM)
[10]
  MIC: 0.48 µg/mL (≈ 0.439 µM)
[11]
  MIC: 0.06 µg/mL (≈ 0.0549 µM)
[12]
  MIC: 0.48 µg/mL (≈ 0.439 µM)
[13]
  MIC: 1.95 µg/mL (≈ 1.78 µM)
[14]
  MIC: > 31.3 µg/mL
[15]
  MIC: > 31.3 µg/mL
[16]
  MIC: > 31.3 µg/mL

## Clc1ccc(N/N=C/c2ccc(-c3ccc(/C=N/Nc4ccc(Cl)cc4)cc3)cc2)cc1
[1]
  Activity: inactive
[2]
  Activity: inactive
[3]
  Activity: inactive
[4]
  MIC: > 31.3 µg/mL
[5]
  MIC: > 31.3 µg/mL
[6]
  MIC: > 31.3 µg/mL
[7]
  MIC: > 31.3 µg/mL
[8]
  MIC: > 31.3 µg/mL
[9]
  MIC: > 31.3 µg/mL
[10]
  MIC: > 31.3 µg/mL
[11]
  MIC: > 31.3 µg/mL
[12]
  MIC: 31.3 µg/mL (≈ 68.1 µM)
[13]
  MIC: 31.3 µg/mL (≈ 68.1 µM)
[14]
  MIC: > 31.3 µg/mL
[15]
  MIC: > 31.3 µg/mL
[16]
  MIC: 31.3 µg/mL (≈ 68.1 µM)

## N=C(N)N/N=C/c1ccc(-c2ccc(/C=N/NC(=N)N)cc2)cc1
[4]
  MIC: 31.3 µg/mL (≈ 97.1 µM)
[5]
  MIC: > 31.3 µg/mL
[6]
  MIC: > 31.3 µg/mL
[7]
  MIC: > 31.3 µg/mL
[8]
  MIC: > 31.3 µg/mL
[9]
  MIC: > 31.3 µg/mL
[10]
  MIC: 15.6 µg/mL (≈ 48.4 µM)
[11]
  MIC: > 31.3 µg/mL
[12]
  MIC: 15.6 µg/mL (≈ 48.4 µM)
[13]
  MIC: 3.9 µg/mL (≈ 12.1 µM)
[14]
  MIC: > 31.3 µg/mL
[15]
  MIC: > 31.3 µg/mL
[16]
  MIC: > 31.3 µg/mL
